Our source for the EC50 and Emax values is patent publication US20260176320A1, “MODULATORS OF G-PROTEIN COUPLED RECEPTORS” (priority 2018, published 2026).

Read-outs that look alike come from different tables or passages of the source. Some results are limits rather than exact numbers.

Format in all cases: cell-based
The target of assay [1] is T1, GLP-1R (Homo sapiens, UniProt P43220). As to the kind of experiment: PathHunter β-arrestin assay. The method, boiled down: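 Agonist concentration–response (22 points, 2-fold steps, duplicates) was run on cells plated the previous day in BSA-supplemented (0.2%) medium. Stimulation lasted 90 min at 37 °C, followed by a 3 h dark incubation with detection reagent at room temperature and a luminescence read.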

Assay [2] deals with T1, GLP-1R. Kind of assay: HitHunter cAMP assay (GLP-1R). The conditions noted are these: cAMP; for Emax: read-out: (Emax) GLP-1R. The method, boiled down:
(§1)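 Cells were resuspended in HBSS plus HEPES, IBMX (625 μM) and BSA, then dispensed with antibody at 10,000 per well. Agonists followed as 22-point twofold series, 30 min at room temperature. Antibody reagent and detection steps ran 1 h and overnight in the dark before luminescence.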

Another assay concerns the target T2, GIP-R (Homo sapiens, UniProt P48546).
T2 sequence (P48546 22-466): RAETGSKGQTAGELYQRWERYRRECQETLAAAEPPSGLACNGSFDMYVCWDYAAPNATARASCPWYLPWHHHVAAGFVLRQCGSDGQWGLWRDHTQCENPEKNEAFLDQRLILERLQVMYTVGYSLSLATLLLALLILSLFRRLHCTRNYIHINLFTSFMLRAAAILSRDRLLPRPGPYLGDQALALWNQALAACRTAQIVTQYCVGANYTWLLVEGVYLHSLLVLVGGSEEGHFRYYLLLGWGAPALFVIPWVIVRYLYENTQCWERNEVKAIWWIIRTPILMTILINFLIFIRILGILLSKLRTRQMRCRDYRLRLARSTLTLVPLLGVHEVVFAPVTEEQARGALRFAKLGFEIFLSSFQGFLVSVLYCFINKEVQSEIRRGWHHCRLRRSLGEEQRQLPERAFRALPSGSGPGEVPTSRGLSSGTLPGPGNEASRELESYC
As to the kind of experiment: HitHunter cAMP assay (GIP-R). To be noted: cAMP; for Emax: read-out: (Emax) GIP-R. The method, boiled down:
as §1
For orientation: Cyclic AMP is a second messenger, typically raised through Gs and lowered through Gi signalling.

T1 sequence (P43220 24-463): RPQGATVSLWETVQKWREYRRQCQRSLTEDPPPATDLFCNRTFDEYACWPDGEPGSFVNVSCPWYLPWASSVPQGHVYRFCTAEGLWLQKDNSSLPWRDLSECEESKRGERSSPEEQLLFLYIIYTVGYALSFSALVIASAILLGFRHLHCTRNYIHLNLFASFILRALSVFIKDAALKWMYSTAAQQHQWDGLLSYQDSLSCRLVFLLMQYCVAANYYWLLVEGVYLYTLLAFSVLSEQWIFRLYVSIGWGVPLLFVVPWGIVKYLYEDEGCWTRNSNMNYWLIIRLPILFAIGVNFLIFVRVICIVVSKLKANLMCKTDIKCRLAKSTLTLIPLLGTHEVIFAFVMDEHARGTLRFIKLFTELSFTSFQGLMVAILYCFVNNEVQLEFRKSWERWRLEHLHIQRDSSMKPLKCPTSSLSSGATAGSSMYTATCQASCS

For `CC[C@H](C)[C@H](NC(=O)[C@H](CO)NC(=O)[C@H](Cc1ccc(O)cc1)NC(=O)[C@H](CC(=O)O)NC(=O)[C@H](CO)NC(=O)[C@@H](NC(=O)[C@H](Cc1ccccc1)NC(=O)[C@@H](NC(=O)CNC(=O)[C@H](CCC(=O)O)NC(=O)CSCC(=O)NCCn1ncc2ccccc2c1=O)[C@@H](C)O)[C@@H](C)O)C(=O)N[C@@H](Cc1ccc(O)cc1)C(=O)N[C@@H](CC(C)C)C(=O)N[C@@H](CC(=O)O)C(=O)N[C@@H](CCCCN)C(=O)N[C@@H](CCC(N)=O)C(=O)N[C@@H](C)C(=O)N[C@@H](C)C(=O)NC(C)(C)C(=O)N[C@@H](CCC(=O)O)C(=O)N[C@@H](Cc1ccccc1)C(=O)N[C@H](C(=O)N[C@@H](CC(N)=O)C(=O)N[C@@H](Cc1c[nH]c2ccccc12)C(=O)N[C@@H](CC(C)C)C(=O)N[C@@H](CC(C)C)C(=O)N[C@@H](C)C(=O)NCC(=O)NCC(=O)N1CCC[C@H]1C(=O)N[C@@H](CO)C(=O)N[C@@H](CO)C(=O)NCC(=O)N[C@@H](C)C(=O)N1CCC[C@H]1C(=O)N1CCC[C@H]1C(=O)N1CCC[C@H]1C(=O)N[C@@H](CO)C(=O)N[C@@H](CCCCN)C(N)=O)C(C)C` [Compound 136], the EC50 at GLP-1R [1] was > 1000 nM; at GLP-1R [2] (EC50 GLP-1R/nM, Table 3), 10 to 100 nM; on GLP-1R [2] (EC50 GLP-1R/nM, Table 3A), 10 to 100 nM; on GIP-R (EC50 GIP-R/nM, Table 3), 0.1 to 1 nM; at GIP-R (EC50 GIP-R/nM, Table 3A) it was 0.1 to 1 nM. Also, the Emax – broadly, the size of the effect at its maximum, as opposed to the concentration needed – at GLP-1R [2] (Table 3) was 91 to 94%; at GLP-1R [2] (Table 3A), 91 to 94%; at GIP-R (Table 3) it was 105%; on GIP-R (Table 3A) it was 105%.
On to `CC[C@H](C)[C@H](NC(=O)[C@H](CO)NC(=O)[C@H](Cc1ccc(O)cc1)NC(=O)[C@H](CC(=O)O)NC(=O)[C@H](CO)NC(=O)[C@@H](NC(=O)[C@H](Cc1ccccc1)NC(=O)[C@@H](NC(=O)CNC(=O)[C@H](CCC(=O)O)NC(=O)CSCC(=O)NCCn1c(C)cc(C)nc1=O)[C@@H](C)O)[C@@H](C)O)C(=O)N[C@@H](Cc1ccc(O)cc1)C(=O)N[C@@H](CC(C)C)C(=O)N[C@@H](CC(=O)O)C(=O)N[C@@H](CCCCN)C(=O)N[C@@H](CCC(N)=O)C(=O)N[C@@H](C)C(=O)N[C@@H](C)C(=O)NC(C)(C)C(=O)N[C@@H](CCC(=O)O)C(=O)N[C@@H](Cc1ccccc1)C(=O)N[C@H](C(=O)N[C@@H](CC(N)=O)C(=O)N[C@@H](Cc1c[nH]c2ccccc12)C(=O)N[C@@H](CC(C)C)C(=O)N[C@@H](CC(C)C)C(=O)N[C@@H](C)C(=O)NCC(=O)NCC(=O)N1CCC[C@H]1C(=O)N[C@@H](CO)C(=O)N[C@@H](CO)C(=O)NCC(=O)N[C@@H](C)C(=O)N1CCC[C@H]1C(=O)N1CCC[C@H]1C(=O)N1CCC[C@H]1C(=O)N[C@@H](CO)C(=O)N[C@@H](CCCCN)C(N)=O)C(C)C` [Compound 137], for which the EC50 is > 1000 nM at GLP-1R [1]; 1 to 10 nM on GLP-1R [2] (EC50 GLP-1R/nM, Table 3); 1 to 10 nM on GLP-1R [2] (EC50 GLP-1R/nM, Table 3A); 10 to 100 nM on GIP-R (EC50 GIP-R/nM, Table 3). The maximum response (Emax) on GLP-1R [2] (Table 3) was 103%; on GLP-1R [2] (Table 3A), 103%; at GIP-R (Table 3), 8%.
As to `CC[C@H](C)[C@H](NC(=O)[C@H](CO)NC(=O)[C@H](Cc1ccc(O)cc1)NC(=O)[C@H](CC(=O)O)NC(=O)[C@H](CO)NC(=O)[C@@H](NC(=O)[C@H](Cc1ccccc1)NC(=O)[C@@H](NC(=O)CNC(=O)[C@H](CCC(=O)O)NC(=O)CSCC(=O)NCCN1C(=O)CCCC1=O)[C@@H](C)O)[C@@H](C)O)C(=O)N[C@@H](Cc1ccc(O)cc1)C(=O)N[C@@H](CC(C)C)C(=O)N[C@@H](CC(=O)O)C(=O)N[C@@H](CCCCN)C(=O)N[C@@H](CCC(N)=O)C(=O)N[C@@H](C)C(=O)N[C@@H](C)C(=O)NC(C)(C)C(=O)N[C@@H](CCC(=O)O)C(=O)N[C@@H](Cc1ccccc1)C(=O)N[C@H](C(=O)N[C@@H](CC(N)=O)C(=O)N[C@@H](Cc1c[nH]c2ccccc12)C(=O)N[C@@H](CC(C)C)C(=O)N[C@@H](CC(C)C)C(=O)N[C@@H](C)C(=O)NCC(=O)NCC(=O)N1CCC[C@H]1C(=O)N[C@@H](CO)C(=O)N[C@@H](CO)C(=O)NCC(=O)N[C@@H](C)C(=O)N1CCC[C@H]1C(=O)N1CCC[C@H]1C(=O)N1CCC[C@H]1C(=O)N[C@@H](CO)C(=O)N[C@@H](CCCCN)C(N)=O)C(C)C` [Compound 138], the EC50 at GLP-1R [1] was > 1000 nM; at GLP-1R [2] (EC50 GLP-1R/nM, Table 3) it was 1 to 10 nM; at GLP-1R [2] (EC50 GLP-1R/nM, Table 3A) it was 1 to 10 nM; on GIP-R (EC50 GIP-R/nM, Table 3), 1 to 10 nM; on GIP-R (EC50 GIP-R/nM, Table 3A) it was 1 to 10 nM. Further, the Emax was determined as 87% on GLP-1R [2] (Table 3), 87% at GLP-1R [2] (Table 3A), 81% at GIP-R (Table 3) and 81% at GIP-R (Table 3A).
Turning to `CC[C@H](C)[C@H](NC(=O)[C@H](CO)NC(=O)[C@H](Cc1ccc(O)cc1)NC(=O)[C@H](CC(=O)O)NC(=O)[C@H](CO)NC(=O)[C@@H](NC(=O)[C@H](Cc1ccccc1)NC(=O)[C@@H](NC(=O)CNC(=O)[C@H](CCC(=O)O)NC(=O)CSCC(=O)NCCn1ccccc1=O)[C@@H](C)O)[C@@H](C)O)C(=O)N[C@@H](Cc1ccc(O)cc1)C(=O)N[C@@H](CC(C)C)C(=O)N[C@@H](CC(=O)O)C(=O)N[C@@H](CCCCN)C(=O)N[C@@H](CCC(N)=O)C(=O)N[C@@H](C)C(=O)N[C@@H](C)C(=O)NC(C)(C)C(=O)N[C@@H](CCC(=O)O)C(=O)N[C@@H](Cc1ccccc1)C(=O)N[C@H](C(=O)N[C@@H](CC(N)=O)C(=O)N[C@@H](Cc1c[nH]c2ccccc12)C(=O)N[C@@H](CC(C)C)C(=O)N[C@@H](CC(C)C)C(=O)N[C@@H](C)C(=O)NCC(=O)NCC(=O)N1CCC[C@H]1C(=O)N[C@@H](CO)C(=O)N[C@@H](CO)C(=O)NCC(=O)N[C@@H](C)C(=O)N1CCC[C@H]1C(=O)N1CCC[C@H]1C(=O)N1CCC[C@H]1C(=O)N[C@@H](CO)C(=O)N[C@@H](CCCCN)C(N)=O)C(C)C` [Compound 139], the EC50 on GLP-1R [1] (PathHunter β-arrestin assay, read-out: β-arrestin activity EC50) was > 1000 nM; at GLP-1R [2] (Table 3, read-out: EC50 GLP-1R/nM) it was 0.1 to 1 nM; at GLP-1R [2] (Table 3A, read-out: EC50 GLP-1R/nM) it was 0.1 to 1 nM; on GIP-R (Table 3, read-out: EC50 GIP-R/nM), 1 to 10 nM; at GIP-R (Table 3A, read-out: EC50 GIP-R/nM) it was 1 to 10 nM. For the same compound, the maximum response (Emax) at GLP-1R [2] (Table 3) turned out to be 102%; at GLP-1R [2] (Table 3A), 102%; at GIP-R (Table 3), 79%; at GIP-R (Table 3A), 79%.
Turning to `CC[C@H](C)[C@H](NC(=O)[C@H](CO)NC(=O)[C@H](Cc1ccc(O)cc1)NC(=O)[C@H](CC(=O)O)NC(=O)[C@H](CO)NC(=O)[C@@H](NC(=O)[C@H](Cc1ccccc1)NC(=O)[C@@H](NC(=O)CNC(=O)[C@H](CCC(=O)O)NC(=O)C(C)(C)C(=O)NCCN1C(=O)c2ccccc2C1=O)[C@@H](C)O)[C@@H](C)O)C(=O)N[C@@H](Cc1ccc(O)cc1)C(=O)N[C@@H](CC(C)C)C(=O)N[C@@H](CC(=O)O)C(=O)N[C@@H](CCCCN)C(=O)N[C@@H](CCC(N)=O)C(=O)N[C@@H](C)C(=O)N[C@@H](C)C(=O)NC(C)(C)C(=O)N[C@@H](CCC(=O)O)C(=O)N[C@@H](Cc1ccccc1)C(=O)N[C@H](C(=O)N[C@@H](CC(N)=O)C(=O)N[C@@H](Cc1c[nH]c2ccccc12)C(=O)N[C@@H](CC(C)C)C(=O)N[C@@H](CC(C)C)C(=O)N[C@@H](C)C(=O)NCC(=O)NCC(=O)N1CCC[C@H]1C(=O)N[C@@H](CO)C(=O)N[C@@H](CO)C(=O)NCC(=O)N[C@@H](C)C(=O)N1CCC[C@H]1C(=O)N1CCC[C@H]1C(=O)N1CCC[C@H]1C(=O)N[C@@H](CO)C(=O)N[C@@H](CCCCN)C(N)=O)C(C)C` [Compound 140], the EC50 at GLP-1R [1] is > 1000 nM; at GLP-1R [2] (EC50 GLP-1R/nM, Table 3), < 0.1 nM; on GLP-1R [2] (EC50 GLP-1R/nM, Table 3A), < 0.1 nM; on GIP-R (EC50 GIP-R/nM, Table 3), 1 to 10 nM; at GIP-R (EC50 GIP-R/nM, Table 3A), 1 to 10 nM. For the same compound, the maximal effect (Emax) at GLP-1R [2] (Table 3) turned out to be 107%; on GLP-1R [2] (Table 3A), 107%; at GIP-R (Table 3), 63%; at GIP-R (Table 3A), 63%.
